Source: patent US8889704B2 (Array BioPharma Inc., priority 2011, dated 2014)
Where a name gives a salt, the structure may show the parent alone.

Columns and labels:
Assay type in all cases: biochemical
PIM-1 = PIM-1 (Homo sapiens, UniProt P11309); experiment: Enzyme PIM-1 Assay ([33P]ATP incorporation into PIM2tide, filter plate); conditions: averaged IC50; 35 μM ATP, 7.5 μM PIM2tide, 0.25 nM PIM-1, 60 min at 22° C.
In short: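 Radiometric assay: 0.25 nM PIM-1 phosphorylates 7.5 μM PIM2tide with 35 μM [γ-33P]ATP in 20 mM MOPS pH 7.4, 10 mM MgCl2, 1 mM DTT, 0.005% Tween-20, 60 min at 22 °C. Product captured on P81 filters, scintillation counted; 10-point 3-fold curve from 10 μM top, 2% DMSO, IC50 by 4-parameter logistic fit of POC.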

[1] = target: T1, GST-tagged recombinant full-length human Pim-2 (Homo sapiens, UniProt Q9P1W9); experiment: PIM-2 Assay (as Example A); conditions: averaged IC50; 4 μM ATP, 1.0 μM PIM2tide, 1.5 nM Pim-2
T1 construct: GST-tagged recombinant full-length human Pim-2; GST
In short: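 Radiometric filter-binding assay: GST-tagged full-length human Pim-2 (1.5 nM) phosphorylates 1.0 μM PIM2tide with 4 μM [γ-33P]ATP for 60 min at 22 °C in pH 7.4 MOPS buffer, 2% DMSO. 10-point 3-fold dilutions from 10 μM top dose; IC50 from 4-parameter fit of percent of control.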

recombinant rat PIM-3 = recombinant rat PIM-3 (Rattus norvegicus, UniProt O70444); experiment: PIM-3 Assay (as Example A); conditions: averaged IC50; 30 μM ATP, 3.75 μM PIM2tide, 0.5 nM PIM-3
In short: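 Recombinant rat PIM-3 (0.5 nM) with 3.75 μM PIM2tide and 30 μM [γ-33P]ATP in MOPS pH 7.4 buffer, 60 min at 22 °C; labelled peptide captured on phosphocellulose filters and counted by scintillation. 10-point curve (top dose 10 μM, 2% DMSO); IC50 from 4-parameter fit of percent of control.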

T1 sequence (Q9P1W9 whole entry): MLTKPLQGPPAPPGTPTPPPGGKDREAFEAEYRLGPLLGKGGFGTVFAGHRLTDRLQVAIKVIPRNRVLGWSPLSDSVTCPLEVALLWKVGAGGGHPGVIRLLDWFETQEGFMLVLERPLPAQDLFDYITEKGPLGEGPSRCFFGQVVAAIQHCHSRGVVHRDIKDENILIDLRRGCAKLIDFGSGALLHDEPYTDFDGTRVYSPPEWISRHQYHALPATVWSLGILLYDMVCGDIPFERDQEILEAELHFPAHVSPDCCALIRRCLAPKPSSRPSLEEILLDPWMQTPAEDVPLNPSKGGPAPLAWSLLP
PIM-1, sequence (P11309 whole entry, species assumed): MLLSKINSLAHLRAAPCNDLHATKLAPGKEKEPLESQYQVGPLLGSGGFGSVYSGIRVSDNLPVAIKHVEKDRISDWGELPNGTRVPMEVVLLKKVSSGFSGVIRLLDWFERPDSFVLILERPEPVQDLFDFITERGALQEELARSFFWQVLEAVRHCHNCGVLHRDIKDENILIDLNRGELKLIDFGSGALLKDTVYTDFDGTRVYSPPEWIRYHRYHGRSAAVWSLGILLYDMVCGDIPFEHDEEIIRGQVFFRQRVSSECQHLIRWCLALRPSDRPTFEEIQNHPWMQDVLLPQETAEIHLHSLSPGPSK

CC(C)Oc1cccc2ccc(-c3nnc4ccc([C@@H](N5CC[C@H](NCCF)C5)C(F)(F)F)cn34)nc12 [Example 81, (S)—N-(2-fluoroethyl)-1-((R)-2,2,2-trifluoro-1-(3-(8-isopropoxyquinolin-2-yl)-[1,2,4]triazolo[4,3-a]pyridin-6-yl)ethyl)pyrrolidin-3-amine dihydrochloride]
IC50 (PIM-1): 0.37 nM
IC50 [1]: > 100 nM
IC50 (recombinant rat PIM-3): 2.8 nM

COCCOc1ccc2ccc(-c3nnc4ccc([C@H](N5CC[C@](C)(N)C5)C(F)(F)F)cn34)nc2c1 [Example 260, (S)-3-methyl-1-((S)-2,2,2-trifluoro-1-(3-(7-(2-methoxyethoxy)quinolin-2-yl)-[1,2,4]triazolo[4,3-a]pyridin-6-yl)ethyl)pyrrolidin-3-amine dihydrochloride]
IC50 (PIM-1): 0.39 nM
IC50 [1]: 95 nM
IC50 (recombinant rat PIM-3): 0.5 nM

CNC(=O)c1ccc2ccc(-c3nnc4ccc([C@@H](N5CC[C@H](N)C5)C(F)(F)F)cn34)nc2c1 [Example 42, 2-(6-((R)-1-((S)-3-aminopyrrolidin-1-yl)-2,2,2-trifluoroethyl)-[1,2,4]triazolo[4,3-a]pyridin-3-yl)-N-methylquinoline-7-carboxamide dihydrochloride]
IC50 (PIM-1): 0.26 nM
IC50 [1]: 49 nM
IC50 (recombinant rat PIM-3): 0.5 nM

COc1cc(F)cc2ccc(-c3nnc4ccc([C@@H](N5CC[C@](C)(N)C5)C(F)(F)F)cn34)nc12 [Example 248, (S)-3-methyl-1-((R)-2,2,2-trifluoro-1-(3-(6-fluoro-8-methoxyquinolin-2-yl)-[1,2,4]triazolo[4,3-a]pyridin-6-yl)ethyl)pyrrolidin-3-amine dihydrochloride]
IC50 (PIM-1): 1.17 nM
IC50 [1]: > 1000 nM
IC50 (recombinant rat PIM-3): 8.1 nM

CCC(C)(C)C(=O)OCCOc1cc2nc(-c3nnc4ccc([C@@H](N5CC[C@H](N)C5)C(F)(F)F)cn34)ccc2cc1F [Example 289, 2-(2-(6-((R)-1-((S)-3-aminopyrrolidin-1-yl)-2,2,2-trifluoroethyl)-[1,2,4]triazolo[4,3-a]pyridin-3-yl)-6-fluoroquinolin-7-yloxy)ethyl 2,2-dimethylbutanoate]
IC50 (PIM-1): 0.38 nM
IC50 [1]: 459 nM
IC50 (recombinant rat PIM-3): 1.6 nM

CC(C)Oc1cc(F)cc2ccc(-c3nnc4ccc([C@@H](N5CC[C@H](NCCO)C5)C(F)(F)F)cn34)nc12 [Example 102, 2-((S)-1-((R)-2,2,2-trifluoro-1-(3-(6-fluoro-8-isopropoxyquinolin-2-yl)-[1,2,4]triazolo[4,3-a]pyridin-6-yl)ethyl)pyrrolidin-3-ylamino)ethanol dihydrochloride]
IC50 (PIM-1): 0.19 nM
IC50 [1]: 30 nM
IC50 (recombinant rat PIM-3): 0.7 nM

COc1cc2nc(-c3nnc4ccc([C@@H](N5C[C@@H](N)[C@H](F)C5)C(F)(F)F)cn34)ccc2cc1F [Example 211, (3R,4R)-4-fluoro-1-((R)-2,2,2-trifluoro-1-(3-(6-fluoro-7-methoxyquinolin-2-yl)-[1,2,4]triazolo[4,3-a]pyridin-6-yl)ethyl)pyrrolidin-3-amine dihydrochloride]
IC50 (PIM-1): 0.52 nM
IC50 [1]: 645 nM
IC50 (recombinant rat PIM-3): 4 nM

COc1cccc2ccc(-c3nnc4ccc([C@@H](N5CCC(C)(O)C5)C(F)(F)F)cn34)nc12 (single isomer, unassigned; diastereomer 1) [Example 193, hydrochloride]
IC50 (PIM-1): 13 nM
IC50 [1]: > 1000 nM
IC50 (recombinant rat PIM-3): 67 nM

COC[C@@H](C)Oc1ccc2ccc(-c3nnc4ccc([C@@H](N5CC[C@H](N)C5)C(F)(F)F)cn34)nc2c1 [Example 149, (S)-1-((R)-2,2,2-trifluoro-1-(3-(7-((R)-1-methoxypropan-2-yloxy)quinolin-2-yl)-[1,2,4]triazolo[4,3-a]pyridin-6-yl)ethyl)pyrrolidin-3-amine dihydrochloride]
IC50 (PIM-1): 0.17 nM
IC50 [1]: > 100 nM
IC50 (recombinant rat PIM-3): 0.7 nM

CC(C)Oc1cccc2ccc(-c3nnc4ccc([C@@H](N5CC[C@H](N)C5)C(F)(F)F)cn34)nc12 [Example 31, (S)-1-((R)-2,2,2-trifluoro-1-(3-(8-isopropoxyquinolin-2-yl)-[1,2,4]triazolo[4,3-a]pyridin-6-yl)ethyl)pyrrolidin-3-amine dihydrochloride]
IC50 (PIM-1): 0.08 nM
IC50 [1]: 23 nM
IC50 (recombinant rat PIM-3): 0.4 nM

FC(F)(F)[C@@H](c1ccc2nnc(-c3ccc4cccc(OCC5CC5)c4n3)n2c1)N1C[C@@H]2C[C@H]1CN2 [Example 67, 2-(6-((R)-1-((1S,4S)-2,5-diazabicyclo[2.2.1]heptan-2-yl)-2,2,2-trifluoroethyl)-[1,2,4]triazolo[4,3-a]pyridin-3-yl)-8-(cyclopropylmethoxy)quinoline dihydrochloride]
IC50 (PIM-1): 1.63 nM
IC50 [1]: 63 nM
IC50 (recombinant rat PIM-3): 3.2 nM

CC(C)Oc1cccc2ccc(-c3nnc4ccc([C@@H](N5CC[C@H](NCCO)C5)C(F)(F)F)cn34)nc12 [Example 101, 2-((S)-1-((R)-2,2,2-trifluoro-1-(3-(8-isopropoxyquinolin-2-yl)-[1,2,4]triazolo[4,3-a]pyridin-6-yl)ethyl)pyrrolidin-3-ylamino)ethanol dihydrochloride]
IC50 (PIM-1): 0.15 nM
IC50 [1]: 40 nM
IC50 (recombinant rat PIM-3): 0.8 nM

Cc1c(-c2cnn(C)c2)ccc2ccc(-c3nnc4ccc([C@@H](N5CC[C@H](N)C5)C(F)(F)F)cn34)nc12 [Example 191, (S)-1-((R)-2,2,2-trifluoro-1-(3-(8-methyl-7-(1-methyl-1H-pyrazol-4-yl)quinolin-2-yl)-[1,2,4]triazolo[4,3-a]pyridin-6-yl)ethyl)pyrrolidin-3-amine dihydrochloride]
IC50 (PIM-1): 0.2 nM
IC50 [1]: 74 nM
IC50 (recombinant rat PIM-3): 0.2 nM

COCC(C)(COC)c1cccc2ccc(-c3nnc4ccc([C@@H](N5CC[C@H](N)C5)C(F)(F)F)cn34)nc12 [Example 110, (S)-1-((R)-1-(3-(8-(1,3-dimethoxy-2-methylpropan-2-yl)quinolin-2-yl)-[1,2,4]triazolo[4,3-a]pyridin-6-yl)-2,2,2-trifluoroethyl)pyrrolidin-3-amine dihydrochloride]
IC50 (PIM-1): 0.19 nM
IC50 [1]: 95 nM
IC50 (recombinant rat PIM-3): 1.8 nM

CC(c1ccc2nnc(-c3ccc4cccc(C(C)(C)C)c4n3)n2c1)N1CC[C@H](N)C1 (stereo partly drawn) [Example 17, (3S)-1-(1-(3-(8-tert-butylquinolin-2-yl)-[1,2,4]triazolo[4,3-a]pyridin-6-yl)ethyl)pyrrolidin-3-amine trihydrochloride]
IC50 (PIM-1): 0.06 nM
IC50 [1]: 12.4 nM
IC50 (recombinant rat PIM-3): 1.2 nM

COc1cc(F)cc2ccc(-c3nnc4ccc([C@H](N5CC[C@](C)(N)C5)C(F)(F)F)cn34)nc12 [Example 218, (S)-3-methyl-1-((S)-2,2,2-trifluoro-1-(3-(6-fluoro-8-methoxyquinolin-2-yl)-[1,2,4]triazolo[4,3-a]pyridin-6-yl)ethyl)pyrrolidin-3-amine]
IC50 (PIM-1): 0.26 nM
IC50 [1]: 33 nM
IC50 (recombinant rat PIM-3): 0.4 nM

COCCOc1ccc2ccc(-c3nnc4ccc([C@@H](N5CC[C@H](N)C5)C(F)(F)F)cn34)nc2c1C1CC1 [Example 152, (S)-1-((R)-1-(3-(8-cyclopropyl-7-(2-methoxyethoxy)quinolin-2-yl)-[1,2,4]triazolo[4,3-a]pyridin-6-yl)-2,2,2-trifluoroethyl)pyrrolidin-3-amine dihydrochloride]
IC50 (PIM-1): 0.25 nM
IC50 [1]: 42 nM
IC50 (recombinant rat PIM-3): 0.3 nM

COc1ccc2ccc(-c3nnc4ccc([C@H](N5CC[C@](C)(N)C5)C(F)(F)F)cn34)nc2c1 [Example 312, (S)-3-methyl-1-((S)-2,2,2-trifluoro-1-(3-(7-methoxyquinolin-2-yl)-[1,2,4]triazolo[4,3-a]pyridin-6-yl)ethyl)pyrrolidin-3-amine]
IC50 (PIM-1): 0.24 nM
IC50 [1]: 170 nM
IC50 (recombinant rat PIM-3): 0.8 nM

CC(C)(O)COc1cccc2ccc(-c3nnc4ccc([C@@H](N5CC[C@@](C)(N)C5)C(F)(F)F)cn34)nc12 [Example 272, 1-(2-(6-((R)-1-((R)-3-amino-3-methylpyrrolidin-1-yl)-2,2,2-trifluoroethyl)-[1,2,4]triazolo[4,3-a]pyridin-3-yl)quinolin-8-yloxy)-2-methylpropan-2-ol dihydrochloride]
IC50 (PIM-1): 0.24 nM
IC50 [1]: 124 nM
IC50 (recombinant rat PIM-3): 0.5 nM

CC(C)Oc1cccc2ccc(-c3nnc4ccc([C@@H](N5CC[C@](N)(CO)C5)C(F)(F)F)cn34)nc12 [Example 188, ((R)-3-amino-1-((R)-2,2,2-trifluoro-1-(3-(8-isopropoxyquinolin-2-yl)-[1,2,4]triazolo[4,3-a]pyridin-6-yl)ethyl)pyrrolidin-3-yl)methanol dihydrochloride]
IC50 (PIM-1): 0.3 nM
IC50 [1]: 111 nM
IC50 (recombinant rat PIM-3): 1 nM

CC(C)Oc1ccc2ccc(-c3nnc4ccc([C@@H](N5CC[C@H](N)C5)C(F)(F)F)cn34)nc2c1 [Example 142, (S)-1-((R)-2,2,2-trifluoro-1-(3-(7-isopropoxyquinolin-2-yl)-[1,2,4]triazolo[4,3-a]pyridin-6-yl)ethyl)pyrrolidin-3-amine dihydrochloride]
IC50 (PIM-1): 0.09 nM
IC50 [1]: 44 nM
IC50 (recombinant rat PIM-3): 0.5 nM
